Reference: PubChem BioAssay (NCI)
Values joined by “and” are separate entries in the source; they are usually repeats but may differ in a detail not shown here. Identical values can stand only once.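 Results reflect a 48-hour exposure of cells in 96-well plates to compound at five concentrations. Abbreviation: GI50, concentration required for 50% inhibition of growth. TGI: total growth inhibition.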

What was measured:
Assay in all cases: NCI anticancer screen, dose series, 48 h
[1] = tested on: RXF 393 renal
[2] = tested on: EKVX NSCLC
[3] = tested on: HCC-2998 colon
[4] = tested on: A498 renal
[5] = tested on: A549 NSCLC
[6] = tested on: HCT-116 colon
[7] = tested on: SN12C renal
[8] = tested on: CAKI-1 renal
[9] = tested on: SK-MEL-5 melanoma
[10] = tested on: BT-549 breast

SMILES	TGI [1]	TGI [2]	TGI [3]	TGI [4]	TGI [5]	TGI [6]	TGI [7]	TGI [8]	TGI [9]	GI50 [3]	GI50 [4]	GI50 [5]	GI50 [10]	TGI [10]	GI50 [6]	GI50 [7]	GI50 [8]	GI50 [9]	GI50 [1]	GI50 [2]
O=c1nc2occc2cn1C1CC(O)C(CO)O1 (stereo unspecified)	> 100 µM	> 100 µM	> 100 µM	> 100 µM	> 100 µM	> 100 µM	> 100 µM	> 100 µM	> 100 µM											
Clc1ccc2c(NCCCNc3nccc(Nc4ccc(Br)cc4)n3)ccnc2c1			2.93 µM	2.48 µM	3.52 µM	3.08 µM	3.37 µM	3 µM	2.84 µM	1.5 µM	1.22 µM	1.78 µM	1.68 µM	3.4 µM	1.36 µM	1.69 µM	1.53 µM	1.48 µM		
O=C1CCCC/C(=C/c2ccccc2)N1	> 100 µM	> 100 µM	> 100 µM	> 100 µM	> 100 µM	> 100 µM	> 100 µM	> 100 µM												
CC(=O)O.CC(=O)O.CC(=O)O.CC(=O)O.CC(=O)O.CC(=O)O.O.[Ti].[Ti]	> 100 µM	> 100 µM	> 100 µM	> 100 µM	> 100 µM	> 100 µM	> 100 µM	> 100 µM	> 100 µM	> 100 µM	> 100 µM	> 100 µM			> 100 µM	> 100 µM	> 100 µM	> 100 µM	> 100 µM	> 100 µM
Cc1ccccc1N1C(=O)/C(=C/c2ccc(N(CCC#N)CCC#N)cc2)N=C1c1cc([N+](=O)[O-])ccc1Cl			> 100 µM	> 100 µM			> 100 µM	> 100 µM	> 100 µM											
Cc1ccc(S(=O)(=O)NCC2CCCCC2=O)cc1 (stereo unspecified)	> 100 µM	> 100 µM		> 100 µM	> 100 µM	> 100 µM	> 100 µM	67.5 µM	> 100 µM											
O=C(Nc1nc2ncn(CCI)c2c(=O)[nH]1)c1ccccc1	59.3 µM	> 100 µM	> 100 µM	83.3 µM	> 100 µM	> 100 µM	> 100 µM	> 100 µM	> 100 µM											
S=C(N/N=C/c1ccco1)NC12CC3CC(CC(C3)C1)C2	> 100 µM	> 100 µM	> 100 µM	> 100 µM	> 100 µM	> 100 µM	> 100 µM	> 100 µM	> 100 µM											
O=C1c2ccccc2C(=O)C1(Cl)C1(S(=O)(=O)O)c2ccccc2-c2ccccc21	> 100 µM		> 100 µM	> 100 µM	> 100 µM	> 100 µM	> 100 µM	> 100 µM	> 100 µM											
CCOC(=O)Oc1c(OC)cc(C(=O)NC2CCc3cc(OC)c(OC)c(OC)c3-c3ccc(SC)c(=O)cc32)cc1OC (stereo unspecified)		37.9 µM	0.187 µM and 0.039 µM	0.514 µM and 0.0622 µM	> 70 µM	0.311 µM and 0.0975 µM	25.2 µM		0.916 µM	0.0156 µM	0.0206 µM	0.0288 µM			< 0.007 µM	0.0136 µM				
CCCCN(CCCC)CC(C(=O)Nc1ccc([N+](=O)[O-])cc1[N+](=O)[O-])/C(C)=N\NC(=S)NN (stereo unspecified)	> 100 µM	> 100 µM	> 100 µM	> 100 µM	> 100 µM	> 100 µM			> 100 µM											
Cc1cc(Br)cc(C)c1NC(=O)C(=O)C(C(=O)c1ccc2ccccc2c1)C1OC(=O)c2ccccc21 (stereo unspecified)	17.8 µM	65.3 µM	24.7 µM	25.6 µM	> 100 µM	29.4 µM	50.5 µM	51.1 µM	23.8 µM											
CSc1nc2c(nc(C)c(=O)n2C2OCC(OC(C)=O)C(OC(C)=O)C2OC(C)=O)c(=O)[nH]1 (stereo unspecified)	> 100 µM	> 100 µM	> 100 µM	> 100 µM	> 100 µM	> 100 µM	> 100 µM	> 100 µM	> 100 µM											
CC(C)=C[C@@H]1C[C@H](C)[C@H]2CC[C@H](C)C3=C2[C@](O)(OC3=O)[C@]1(C)O	> 100 µM	> 100 µM	> 100 µM		> 100 µM	> 100 µM	> 100 µM	> 100 µM	> 100 µM	> 100 µM		> 100 µM	> 100 µM	> 100 µM	> 100 µM	> 100 µM	> 100 µM	> 100 µM	> 100 µM	> 100 µM
CC(C)(C)C(=O)OCOP(=O)(OCOC(=O)C(C)(C)C)C1CCCN(O)C1=O (stereo unspecified)	1.74 µM	12.5 µM	5.59 µM		> 100 µM		14.1 µM	> 100 µM	1.58 µM	0.446 µM		0.637 µM	0.313 µM	1.26 µM		0.334 µM	0.324 µM	0.324 µM	0.36 µM	0.657 µM
CC1OC(n2cc(F)c(=O)[nH]c2=O)C=CC1O (stereo unspecified)	> 100 µM	> 100 µM	> 100 µM	> 100 µM	> 100 µM	> 100 µM	> 100 µM	> 100 µM	> 100 µM											
CC(C)(C)[SiH]12(OC(C(F)(F)F)(C(F)(F)F)c3ccccc31)OC(C(F)(F)F)(C(F)(F)F)c1ccccc12		14.1 µM	12.9 µM		19.9 µM	13 µM	19.4 µM	25.3 µM	22.1 µM											
Ic1ccc(Nc2nc3nonc3nc2Nc2ccc(I)cc2)cc1		> 100 µM	> 100 µM	0.418 µM	> 100 µM	> 100 µM			0.352 µM	0.326 µM	0.0829 µM	0.282 µM	0.301 µM	1.36 µM	0.135 µM		0.214 µM	0.137 µM		0.245 µM
COC(=O)C(C(=O)C(=O)Nc1cccc(OC)c1)c1cnc2ccccc2n1 (stereo unspecified)	> 100 µM	> 100 µM	> 100 µM	> 100 µM	> 100 µM	> 100 µM	> 100 µM	> 100 µM	> 100 µM											
